Measurements from patent US8618063B2, “Method for treating a synucleinopathy” (The Board of Trustees of the University of Illinois, priority 2008, dated 2013).
“Also recorded” adds a separate entry of the source. Read-outs that look alike come from different tables or passages of the source.

What was measured:
[1] = test system: α-synuclein mutant Ala30Pro effects on fast axonal transport; assay: Isolated axoplasm: blocking of mutant α-synuclein (Ala30Pro) effects on fast axonal transport; assay type: cell-based, squid Loligo pealeii; conditions: coperfused with α-synuclein mutant Ala30Pro, FIG. 3
Protocol: (§1) Axoplasm was extruded from giant axons of the squid Loligo pealeii (Marine Biological Laboratory) according to established methods (Brady, et al. (1985) Cell Motil. 5(2):81-101). Axons were 400-600 μm in diameter and provided ≈5 μl of axoplasm per axon. Wild-type α-synuclein or α-synuclein with point mutations associated with familial Parkinson's disease (Ala30Pro or Ala53Thr), MPP+, enzymes or inhibitors were diluted into X/2 buffer (175 mM potassium aspartate, 65 mM taurine, 35 mM betaine, 25 mM glycine, 10 mM HEPES, 6.5 mM MgCl2, 5 mM EGTA, 1.5 mM CaCl2, 0.5 mM glucose, pH 7.2) supplemented with 2-5 mM ATP and 20 μl of this mix was added to perfusion chambers (Brady, et al. (1985) supra). Preparations were analyzed on a ZEISS AXIOMAT with a 100×, 1.3 na objective, and DIC optics. Hamamatsu Argus 20 and Model 2400 CCD camera were used for image processing and analysis. Organelle velocities were measured with a Photonics Microscopy C2117 video manipulator (Hamamatsu).
Accordingly, these inhibitors were coperfused with pathological α-synuclein mutant Ala30Pro and fast axonal transport was monitored. […] Similarly, the effects of α-synuclein mutant Ala30Pro could be blocked by a PKCmu peptide substrate (FIG. 3B) and an inhibitor of Src-Family Tyrosine Kinases (PP2) (FIG. 3C).

[2] = test system: LB filaments (wild-type α-synuclein) effects on fast axonal transport; assay: Isolated axoplasm: blocking of LB filament effects on fast axonal transport; assay type: cell-based, squid Loligo pealeii; conditions: FIG. 4B
Protocol: as §1
Plasmids containing wild-type α-synuclein; Ala30Pro α-synuclein and Ala53Thr α-synuclein for conventional expression in bacteria were used to generate synuclein protein used in axoplasm and squid giant synapse preparations. […] The ability of LB filaments to affect retrograde axonal transport in isolated axoplasm was evaluated, as were the effects of wild-type LB filaments on kinases.

[3] = test system: Ala30Pro mutant α-synuclein induced failure of neurotransmission; assay: Squid giant synapse: prevention of Ala30Pro α-synuclein induced failure of neurotransmission; assay type: cell-based; conditions: co-injection / coperfusion with Ala30Pro α-synuclein
Protocol: If they both work by activating PKC and increasing retrograde transport, they might affect availability of synaptic vesicle components in presynaptic terminals. Accordingly, either wild-type α-synuclein, Ala30Pro α-synuclein, or MPP+ were injected into the presynaptic side of the squid giant synapse as described for synaptic vesicles and synapsin (McGuinness, et al. (1989) J. Neurosci. 9:4138-4149; Llinas, et al. (1989) Proc. Nat. Acad. Sci. USA 86:5656-5660). This preparation has been used to evaluate the effects of reagents on presynaptic function by injecting, then stimulating the presynaptic side while recording intracellularly on both pre- and post-synaptic sides (Llinas, et al. (2004) Proc. Natl. Acad. Sci. USA 101:17855-60; Sugimori, et al. (1998) Neuroscience 86:39-51).

[4] = test system: MPP+ effects on fast axonal transport; assay: Isolated axoplasm: blocking of MPP+ effects on fast axonal transport; assay type: cell-based, squid Loligo pealeii; conditions: FIG. 5B
Protocol: as §1
(§2) MPTP/MPP+ is the best characterized example of toxin-induced Parkinson's disease. The effects of MPP+ on fast axonal transport were examined in axoplasm as was dynein phosphorylation in cells. […] Based on reports that MPP+ could activate caspase3 (Turmel, et al. (2001) Mov. Disord. 16:185-9) and that caspase3 can activate a PKC by proteolytic cleavage (Kaul, et al. (2003) Eur. J. Neurosci. 18:1387-401), the ability of a caspase3 inhibitor to block effects of MPP+ on fast axonal transport was evaluated. […] Further, perfusion with Caspase 3 affected retrograde transport in a manner similar to PKC and MPP+ (retrograde transport=1.462±0.016 μm/sec).

fast axonal transport = assay: Motility studies in isolated axoplasm: effect of perfused substance on fast axonal transport; assay type: cell-based, squid Loligo pealeii; conditions: substance perfused alone into isolated axoplasm
Protocol: as §1

[5] = test system: cPKC-alpha, cPKC-beta, cPKC-gamma, nPKC-delta and nPKC-epsilon, and aPKC-zeta; conditions: cited from earlier work
PKD [6] = molecular target: T1, PKD (Homo sapiens, UniProt Q15139); conditions: read-out: PKD phosphorylation of the exogenous substrate syntide-2 IC50; cited from earlier work
T1 sequence (Q15139 1-912): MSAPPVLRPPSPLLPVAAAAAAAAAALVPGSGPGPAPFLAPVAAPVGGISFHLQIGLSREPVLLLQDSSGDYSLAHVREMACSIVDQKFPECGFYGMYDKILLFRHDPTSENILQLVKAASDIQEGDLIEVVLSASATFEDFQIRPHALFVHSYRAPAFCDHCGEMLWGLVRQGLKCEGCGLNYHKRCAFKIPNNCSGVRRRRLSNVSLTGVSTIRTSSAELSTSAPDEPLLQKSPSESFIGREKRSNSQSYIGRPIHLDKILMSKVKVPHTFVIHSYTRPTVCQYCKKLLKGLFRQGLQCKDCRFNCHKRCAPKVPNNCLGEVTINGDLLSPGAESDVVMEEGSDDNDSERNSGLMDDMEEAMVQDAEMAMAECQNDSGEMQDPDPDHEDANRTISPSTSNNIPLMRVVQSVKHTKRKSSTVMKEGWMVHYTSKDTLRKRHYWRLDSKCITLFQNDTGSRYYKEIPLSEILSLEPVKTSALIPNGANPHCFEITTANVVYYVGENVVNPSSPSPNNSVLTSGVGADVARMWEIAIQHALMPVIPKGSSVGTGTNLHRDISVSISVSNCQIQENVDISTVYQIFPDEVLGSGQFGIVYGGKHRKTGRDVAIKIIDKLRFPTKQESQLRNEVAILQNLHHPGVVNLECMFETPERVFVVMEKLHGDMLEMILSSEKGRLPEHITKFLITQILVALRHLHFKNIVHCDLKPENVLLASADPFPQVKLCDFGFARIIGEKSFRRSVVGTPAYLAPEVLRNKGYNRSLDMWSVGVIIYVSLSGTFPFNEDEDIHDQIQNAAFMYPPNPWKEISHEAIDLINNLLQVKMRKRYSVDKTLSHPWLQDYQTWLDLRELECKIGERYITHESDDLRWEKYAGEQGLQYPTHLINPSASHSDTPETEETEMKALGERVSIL

PKD [7] = molecular target: T1, PKD; conditions: read-out: PKD autophosphorylation IC50; cited from earlier work
phosphorylation of DIC = assay: NGF/BDNF (Trk receptor) induced shift of dynein intermediate chain; assay type: cell-based; conditions: Trk neurotrophin receptors; Gö6976 at 100 nM
Source text: Specifically, NGF and BDNF binding to Trk neurotrophin receptors caused a shift in the apparent molecular weight of dynein intermediate chain (DIC). To identify the kinase pathway involved in this change, more than 30 different kinase and phosphatase inhibitors were screened.

PKCμ = molecular target: T2, PKCμ (Homo sapiens, UniProt Q15139); conditions: cited from earlier work
T2 sequence (Q15139 1-912): T1 sequence (Q15139 1-912)

PKCζ = molecular target: T3, PKCζ (Homo sapiens, UniProt Q05513); conditions: cited from earlier work
T3 sequence (Q05513 1-592): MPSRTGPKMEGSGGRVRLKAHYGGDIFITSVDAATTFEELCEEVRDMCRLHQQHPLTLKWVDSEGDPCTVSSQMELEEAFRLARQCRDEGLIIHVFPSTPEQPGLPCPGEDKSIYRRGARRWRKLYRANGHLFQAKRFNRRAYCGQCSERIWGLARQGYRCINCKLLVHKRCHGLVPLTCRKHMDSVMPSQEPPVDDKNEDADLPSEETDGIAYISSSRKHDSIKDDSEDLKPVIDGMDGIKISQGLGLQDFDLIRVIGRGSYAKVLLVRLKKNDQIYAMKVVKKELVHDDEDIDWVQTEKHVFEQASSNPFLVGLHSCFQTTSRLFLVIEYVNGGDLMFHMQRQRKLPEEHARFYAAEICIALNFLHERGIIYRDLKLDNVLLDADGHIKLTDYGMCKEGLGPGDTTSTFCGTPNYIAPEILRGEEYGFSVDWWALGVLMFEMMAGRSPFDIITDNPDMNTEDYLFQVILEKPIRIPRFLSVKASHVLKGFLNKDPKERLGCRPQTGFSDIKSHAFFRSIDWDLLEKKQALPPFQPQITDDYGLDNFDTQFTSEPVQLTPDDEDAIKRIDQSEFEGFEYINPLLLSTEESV

PKCγ = PKCγ (Homo sapiens, UniProt P05129); conditions: cited from earlier work
PKCδ = PKCδ (Homo sapiens, UniProt Q05655); conditions: cited from earlier work
PKCβ = PKCβ (Homo sapiens, UniProt P05771); conditions: cited from earlier work
[8] = test system: Src/Fyn effects on fast axonal transport; assay: Isolated axoplasm: blocking of Src/Fyn effects on fast axonal transport; assay type: cell-based, squid Loligo pealeii; conditions: for blocking of Src/Fyn actions on fast axonal transport: concentration not given
Protocol: as §1
Screening of nonreceptor tyrosine kinases included Src- and Abl-family members. […] Given that neither kinesin nor dynein are known to have tyrosine phosphorylations, the ability of a broad spectrum PKC inhibitor Gö6976 was included in the assay to block the action of Fyn. Gö6976 inhibition of PKC abolished actions of Src/Fyn on fast axonal transport (FIG. 1D), as did perfusion of the MARCKS peptide.

PKCα = PKCα (Homo sapiens, UniProt P17252); conditions: cited from earlier work
DIC phosphorylation [9] = assay: Labeling studies with MPP+ treated cortical neurons; assay type: cell-based; conditions: MPP+ treated cortical neurons
Protocol: One mCi ^32P phosphate (ICN) was added per dish and incubated for 4 hours. Medium was discarded, cells homogenized in 1 ml of ROLB buffer and processed accordingly to standard methods (Morfini, et al. (2004) supra). Axoplasms were prepared as for video microscopy, but 1 mCi of γ-^32P-ATP was added. After 50 minutes incubation, axoplasms were homogenized in ROLB buffer. A 10 μl aliquot of lysate was precipitated with 15% TCA and radioactivity incorporated into protein determined by scintillation counting. Aliquots of equal counts were used for kinesin immunoprecipitation with 10 μg of 74.1 antibody and Protein G-agarose beads (Pierce). Immunoprecipitates were separated by SDS-PAGE, dried and exposed in a PHOSPHORIMAGER cassette, then scanned and quantified on a TYPHOON (Amersham/Molecular Dynamics).
as §2

DIC phosphorylation [10] = assay: Reelin receptor stimulated DIC phosphorylation; assay type: cell-based

PKCδ, sequence (Q05655 whole entry): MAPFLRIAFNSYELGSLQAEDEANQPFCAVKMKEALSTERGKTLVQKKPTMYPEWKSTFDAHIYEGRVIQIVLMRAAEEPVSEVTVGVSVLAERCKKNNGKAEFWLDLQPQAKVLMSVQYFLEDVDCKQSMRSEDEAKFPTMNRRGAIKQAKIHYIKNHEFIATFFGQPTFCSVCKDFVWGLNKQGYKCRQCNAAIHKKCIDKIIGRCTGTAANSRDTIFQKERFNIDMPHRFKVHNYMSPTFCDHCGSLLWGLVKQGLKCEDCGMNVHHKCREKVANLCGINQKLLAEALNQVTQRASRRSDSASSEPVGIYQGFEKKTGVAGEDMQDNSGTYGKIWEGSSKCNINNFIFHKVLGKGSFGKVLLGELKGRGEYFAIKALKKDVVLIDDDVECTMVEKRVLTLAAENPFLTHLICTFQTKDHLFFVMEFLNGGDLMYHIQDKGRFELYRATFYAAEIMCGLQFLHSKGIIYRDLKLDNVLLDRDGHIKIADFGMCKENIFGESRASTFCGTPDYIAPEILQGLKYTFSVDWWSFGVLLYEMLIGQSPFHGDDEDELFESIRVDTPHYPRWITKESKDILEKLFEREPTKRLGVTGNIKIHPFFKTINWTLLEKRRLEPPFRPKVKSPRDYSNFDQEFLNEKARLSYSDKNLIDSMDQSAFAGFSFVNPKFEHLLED
PKCβ, sequence (P05771 whole entry, species assumed): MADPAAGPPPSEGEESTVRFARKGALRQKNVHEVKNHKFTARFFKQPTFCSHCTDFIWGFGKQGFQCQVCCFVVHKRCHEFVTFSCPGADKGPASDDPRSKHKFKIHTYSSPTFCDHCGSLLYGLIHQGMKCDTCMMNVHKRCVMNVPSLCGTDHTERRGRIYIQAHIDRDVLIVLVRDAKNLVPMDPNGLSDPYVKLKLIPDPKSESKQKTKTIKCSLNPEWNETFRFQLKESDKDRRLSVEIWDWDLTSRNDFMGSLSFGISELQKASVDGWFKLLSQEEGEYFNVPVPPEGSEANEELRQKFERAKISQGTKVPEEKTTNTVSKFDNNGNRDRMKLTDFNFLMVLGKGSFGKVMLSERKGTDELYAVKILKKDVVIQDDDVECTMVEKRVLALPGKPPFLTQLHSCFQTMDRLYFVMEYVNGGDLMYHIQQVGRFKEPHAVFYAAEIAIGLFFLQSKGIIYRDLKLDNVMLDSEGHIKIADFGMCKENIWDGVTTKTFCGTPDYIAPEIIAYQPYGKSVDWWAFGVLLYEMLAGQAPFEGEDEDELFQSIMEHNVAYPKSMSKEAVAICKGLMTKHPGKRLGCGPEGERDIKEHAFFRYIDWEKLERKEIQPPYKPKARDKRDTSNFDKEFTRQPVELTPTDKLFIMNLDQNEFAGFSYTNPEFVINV

With `CC(C)(C)n1nc(-c2ccc(Cl)cc2)c2c(N)ncnc21` [PP2, 4-amino-5-(4-chlorophenyl)-7-(t-butyl) pyrazolo[3,4-d-]pyrimidine] the “blocking of familial Parkinson's disease mutant α-synuclein (Ala30Pro) effects on fast axonal transport” value [1] was “effective at blocking; also recorded: blocked”, the “blocking of LB filament (wild-type α-synuclein) effects on fast axonal transport” value [2] was “blocked” and the “prevention of Ala30Pro α-synuclein effect on neurotransmission” value (from here on “prevention”) [3] was “prevented”. For the same compound, the “blocking of MPP+ effects on fast axonal transport” value (shortened to “blocking of MPP+ effects”) [4] was “did not”.
With “Fyn: Src-Family nonreceptor tyrosine kinase perfused into axoplasm” the “effect on fast axonal transport (retrograde RT / anterograde AT), in words” value (fast axonal transport) was “indistinguishable from the effects of PKCs; also recorded: a rapid increase in the amount and rate of retrograde transport accompanied by a slow decline in anterograde transport”.
In the case of `Oc1ccc(C=Cc2cc(O)cc(O)c2)cc1` [resveratrol], the “effects against the autophosphorylation reactions of PKC isozyme subfamily members” value [5] is listed as “negligible effects”, the IC50 (PKD [6]) is listed as 36 µM and the IC50 (PKD [7]) is listed as 52 µM.
In the case of `COc1ccc2c(c1)c(C1=C(c3c[nH]c4ccccc34)C(=O)NC1=O)cn2CCCN(C)C` [Gö6983], the “blocking of familial Parkinson's disease mutant α-synuclein (Ala30Pro) effects on fast axonal transport” value [1] is listed as “ineffective; also recorded: not effective”, the “blocking of NGF/BDNF induced shift (phosphorylation) of DIC” value (phosphorylation of DIC) is listed as “failed to block” and the IC50 (PKCμ) is listed as 20 µM. The IC50 (PKCζ) was 0.06 µM, the IC50 (PKCγ) was 0.006 µM and the IC50 (PKCδ) was 0.01 µM. For the same compound, the IC50 (PKCβ) was 0.007 µM, the “prevention” value [3] was “not effective” and the “blocking of Src/Fyn actions on fast axonal transport” value [8] was “did not block”. For the same compound, the “blocking of MPP+ effects” value [4] was “blocked” and the IC50 (PKCα) was 0.007 µM.
For `Cn1c2ccccc2c2c3c(c4c5ccccc5n(CCC#N)c4c21)CNC3=O` [Gö6976, 5,6,7,13-Tetrahydro-13-methyl-5-oxo-12H-indolo[2,3-a]pyrrolo[3,4-c]carbazole-12-propanenitrile], the “blocking of familial Parkinson's disease mutant α-synuclein (Ala30Pro) effects on fast axonal transport” value [1] was “effective at blocking; also recorded: prevented”, the “blocking of NGF/BDNF induced shift (phosphorylation) of DIC” value (phosphorylation of DIC) was “able to block” and the “blocking of MPP+ induced increase in DIC phosphorylation” value (DIC phosphorylation [9]) was “blocked”. For the same compound, the “blocking of LB filament (wild-type α-synuclein) effects on fast axonal transport” value [2] was “blocked”, the “blocking of Reelin receptor stimulated increase in DIC phosphorylation” value (DIC phosphorylation [10]) was “blocked” and the “prevention” value [3] was “prevented”. The “blocking of Fyn effects on fast axonal transport” value ([8]; 100 nM inhibitor, FIG. 1D) was “blocked”, the “blocking of Src/Fyn actions on fast axonal transport” value [8] was “inhibited; also recorded: abolished” and the “blocking of MPP+ effects” value [4] was “blocked”.
